{"source": "PubChem BioAssay AID743161", "about": "(Sanford-Burnham Center for Chemical Genomics, 2013)", "note": "Values joined by “and” are separate entries in the source; they are usually repeats but may differ in a detail not shown here. Equal entries are not always repeated. Active and inactive are the calls of the source.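 How the source made its calls: active means compounds whose lipid-stain IC50 is at most a set limit, with nuclear-stain IC50 a set multiple higher; inactive means the rest.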"}
{"system": "H9c2 rat cardiomyoblasts, Nile Red TAG fluorescence, overnight", "assay": "TAG accumulation blockers, Nile Red lipid stain – cell-based, H9c2 rat cardiomyoblasts, Nile Red fluorescence, primary readout, dose response (AID 743161)"}
{"smiles": "CCOc1ccc(CCNC(=O)CN2CCN(Cc3ccccc3C)C2=O)cc1OCC", "IC50": "10.8 µM"}
{"smiles": "COCCN1Cc2cccc(C(=O)Nc3cccnc3)c2C1=O", "IC50": "> 50 µM (inactive)"}
{"smiles": "COCCN1Cc2cccc(C(=O)Nc3cccc(-c4nc5ccc(C)cc5[nH]4)c3)c2C1=O", "IC50": "1.31 µM"}
{"smiles": "COCCN1Cc2cccc(C(=O)Nc3cccc(Cl)c3)c2C1=O", "IC50": "> 50 µM (inactive)"}
{"smiles": "COc1ccc(CCN2Cc3cccc(C(=O)Nc4cccc(-c5nc6ccccc6[nH]5)c4)c3C2=O)cc1OC", "IC50": "1.1 µM"}
{"smiles": "O=C(Nc1cccc(-c2nc3ccccc3[nH]2)c1)c1ccncc1", "IC50": "> 50 µM (inactive)"}
{"smiles": "O=C(Nc1cccc(-c2nc3ccccc3[nH]2)c1)C1CCCC1", "IC50": "44.3 µM (inactive)"}
{"smiles": "CCC(C)(C)NC(=O)C(c1ccc(OC)cc1)N(Cc1cccs1)C(=O)CCC(=O)Nc1cc(C)on1", "note": "(centres undefined)", "IC50": "5.88 µM"}
{"smiles": "COc1cc2c(cc1OC)C(C)N(C(=O)c1cc3c(C)cc(C)cc3[nH]1)CC2", "note": "(centres undefined)", "IC50": "18.2 µM (inactive)"}
{"smiles": "COCCn1cnc2cccc(C(=O)Nc3cccc(-c4nc5ccccc5[nH]4)c3)c2c1=O", "IC50": "> 50 µM (inactive)"}
{"smiles": "COCCN1Cc2cccc(C(=O)Nc3nc4ccccc4n3C)c2C1=O", "IC50": "> 50 µM (inactive)"}
{"smiles": "CC(=O)Nc1cccc(-c2nc3ccccc3[nH]2)c1", "IC50": "> 50 µM (inactive)"}
{"smiles": "CCC(C)(C)NC(=O)C(c1ccc(C)cc1)N(Cc1ccco1)C(=O)CCC(=O)Nc1nccs1", "note": "(centres undefined)", "IC50": "8.41 µM"}
{"smiles": "CCCN1Cc2cccc(C(=O)Nc3ccc(C)cc3)c2C1=O", "IC50": "> 50 µM (inactive)"}
{"smiles": "COCCN1Cc2cccc(C(=O)Nc3ccc(C)cc3)c2C1=O", "IC50": "19.3 µM (inactive)"}
{"smiles": "CCN(CC)S(=O)(=O)c1ccc(NC(=O)c2cccc3c2C(=O)N(CCOC)C3)cc1", "IC50": "> 50 µM (inactive)"}
{"smiles": "CCN(CC)S(=O)(=O)c1ccc(N2CCOCC2)c(NC(=O)c2[nH]c(C)c(C(C)=O)c2C)c1", "IC50": "11.3 µM"}
{"smiles": "Cc1cc(C)c2nc(-c3ccncc3)cc(C(=O)N3CCN(Cc4ccccc4Cl)CC3)c2c1", "IC50": "5.05 µM"}
{"smiles": "O=C(Nc1cccc2ncccc12)c1ccc(Cl)cc1", "IC50": "> 50 µM (inactive)"}
{"smiles": "Cc1ccc(Nc2nc(OC(C(F)(F)F)C(F)(F)F)nc(N3CCOCC3)n2)cc1", "IC50": "3.9 µM"}
{"smiles": "CCCN1Cc2cccc(C(=O)Nc3cccc(C(C)=O)c3)c2C1=O", "IC50": "> 50 µM (inactive)"}
{"smiles": "COCCN1Cc2cccc(C(=O)Nc3cccc(-c4nc5ccc(C(F)(F)F)cc5[nH]4)c3)c2C1=O", "IC50": "0.832 µM"}
{"smiles": "COCCN1Cc2cccc(C(=O)Nc3cccc(C(=O)Nc4ccccc4)c3)c2C1=O", "IC50": "2.9 µM"}
{"smiles": "COc1ccccc1CCN1Cc2cccc(C(=O)Nc3cccc(-c4nc5ccccc5[nH]4)c3)c2C1=O", "IC50": "1.07 µM"}
{"smiles": "COc1cc(NC(=O)c2cc([N+](=O)[O-])ccc2NC(=O)CN2CCN(c3ccccn3)CC2)cc(OC)c1", "IC50": "8.11 µM"}
{"smiles": "CCCC(=O)Nc1nc2ccc(NC(=O)c3c(F)c(F)c(OC)c(F)c3F)cc2s1", "IC50": "8.2 µM"}
{"smiles": "COCCN1Cc2cccc(C(=O)Nc3cccc(C(=O)Nc4ccccc4OC)c3)c2C1=O", "IC50": "5.75 µM"}
{"smiles": "CN(C)CCCn1c(SCC(=O)Nc2nc(-c3cccc(Br)c3)cs2)nc2ccccc2c1=O", "IC50": "22.8 µM (inactive)"}
{"smiles": "CCCN1Cc2cccc(C(=O)Nc3ccc(-c4nc5ccccc5[nH]4)cc3)c2C1=O", "IC50": "> 50 µM (inactive)"}
{"smiles": "O=[N+]([O-])c1ccc(Nc2nc(NC3CCCCC3)nc(N3CCCC3)n2)cc1", "IC50": "14 µM"}
{"smiles": "CCn1c(SCC(=O)Nc2nc(-c3ccc(C)cc3)cs2)nnc1-c1ccccc1O", "IC50": "7.87 µM"}
{"smiles": "CCOCCN1Cc2cccc(C(=O)Nc3cccc(-c4nc5ccccc5[nH]4)c3)c2C1=O", "IC50": "1.18 µM"}
{"smiles": "CCOc1ccccc1NC(=O)c1cccc(NC(=O)c2ccco2)c1", "IC50": "12 µM"}
{"smiles": "COCCN1Cc2cccc(C(=O)Nc3cccc(-c4nc5ccccc5[nH]4)c3)c2C1=O", "IC50": "1.19 µM and 1.25 µM and 1.68 µM"}
{"smiles": "COCCN1Cc2cccc(C(=O)Nc3ccc(S(=O)(=O)N4CCOCC4)cc3)c2C1=O", "IC50": "> 50 µM (inactive)"}
{"smiles": "O=C(Nc1cccc(-c2nc3ccccc3[nH]2)c1)c1cccc2c1C(=O)N(CC1CC1)C2", "IC50": "1.53 µM"}
{"smiles": "O=C(CSc1nc2ccc(Nc3nc(N4CCOCC4)nc(N4CCOCC4)n3)cc2s1)NCc1ccco1", "IC50": "6.77 µM"}
{"smiles": "CCCCN1Cc2cccc(C(=O)Nc3cccc(-c4nc5ccccc5[nH]4)c3)c2C1=O", "IC50": "0.982 µM"}
{"smiles": "COCCN1Cc2cccc(C(=O)Nc3cccc(C(C)=O)c3)c2C1=O", "IC50": "17.5 µM (inactive)"}
{"smiles": "CCOC(=O)c1cccc(NC(=O)c2cccc3c2C(=O)N(CCOC)C3)c1", "IC50": "> 50 µM (inactive)"}
{"smiles": "O=C1COc2ccc(C(=O)CSc3nc4ccccc4c(=O)n3-c3ccc(Cl)c(Cl)c3)cc2N1", "IC50": "14.9 µM"}
{"smiles": "CSCCCN1Cc2cccc(C(=O)Nc3cccc(-c4nc5ccccc5[nH]4)c3)c2C1=O", "IC50": "0.661 µM"}
{"smiles": "CCCC(=O)Nc1nc2ccc(NC(=O)c3ccccc3F)cc2s1", "IC50": "13.5 µM"}
{"smiles": "COCCN1Cc2cccc(C(=O)Nc3ccc(-c4nc5ccccc5[nH]4)cc3)c2C1=O", "IC50": "0.0525 µM"}
{"smiles": "COCCN1Cc2cccc(C(=O)Nc3cccc(-c4nc5ccc(Cl)cc5[nH]4)c3)c2C1=O", "IC50": "1.42 µM"}
{"smiles": "COCCN1Cc2cccc(C(=O)Nc3ccc(CN4CCOCC4)cc3)c2C1=O", "IC50": "> 50 µM (inactive)"}
{"smiles": "COCCCN1Cc2cccc(C(=O)Nc3cccc(-c4nc5ccccc5[nH]4)c3)c2C1=O", "IC50": "2.29 µM"}
{"smiles": "O=C(Nc1cccc(-c2nc3ccccc3[nH]2)c1)c1cccc2c1C(=O)N(CCN1CCOCC1)C2", "IC50": "3.36 µM"}
{"smiles": "Cc1ccc(-c2csc(NC(=O)CSc3nc4ccccc4c(=O)n3CCCN(C)C)n2)cc1", "IC50": "17.5 µM (inactive)"}
{"smiles": "O=C(CCC(=O)N1CCOc2ccc(Cl)cc21)NCCCN1CCC(Cc2ccccc2)CC1", "IC50": "12.6 µM"}
{"smiles": "COc1cccc(-c2cc(C(=O)Nc3ccc(N(C)C(C)=O)cc3)c3cc(Br)ccc3n2)c1", "IC50": "10.4 µM"}
{"smiles": "COCCN1Cc2cccc(C(=O)Nc3nc4ccccc4[nH]3)c2C1=O", "IC50": "> 50 µM (inactive)"}
{"smiles": "O=C(Nc1cccc(-c2nc3ccccc3[nH]2)c1)c1cccc2c1C(=O)N(CCOc1ccccc1)C2", "IC50": "1.01 µM"}
{"smiles": "Cc1ccccc1OCCNc1cc(N2CC(C)NC(C)C2)ccc1[N+](=O)[O-]", "note": "(centres undefined)", "IC50": "11.3 µM"}
{"smiles": "COc1ccc(-c2csc(NC(=O)c3ccc(OCC(=O)N4CCOCC4)c(OC)c3)n2)cc1", "IC50": "0.662 µM"}
{"smiles": "CCCCSc1nc2ccc(Nc3nc(N4CCOCC4)nc(N4CCOCC4)n3)cc2s1", "IC50": "7.11 µM"}
{"smiles": "Cc1cccc2c(C(=O)N3CCN(c4ccccc4)CC3)cc(-c3ccncc3)nc12", "IC50": "4.25 µM"}
{"smiles": "Cc1ccccc1NC(=O)CSc1nc2ccc(Nc3nc(N4CCOCC4)nc(N4CCOCC4)n3)cc2s1", "IC50": "6.86 µM"}
{"smiles": "CC(C)CC(=O)Nc1cccc(-c2nc3ccccc3[nH]2)c1", "IC50": "> 50 µM (inactive)"}
{"smiles": "CCOC(=O)c1cc(-c2ccccc2)sc1NC(=O)C(C)N1C(=O)NC(C)(c2ccc(Cl)cc2)C1=O", "note": "(centres undefined)", "IC50": "8.38 µM"}
{"smiles": "COCCN1Cc2cccc(C(=O)Nc3cccc(Cl)c3Cl)c2C1=O", "IC50": "> 50 µM (inactive)"}
{"smiles": "COCCN1Cc2cccc(C(=O)Nc3ccc(S(=O)(=O)N4CCCCC4)cc3)c2C1=O", "IC50": "> 50 µM (inactive)"}
{"smiles": "O=C(Nc1cccc(-c2nc3ccccc3[nH]2)c1)c1ccccc1", "IC50": "32.8 µM (inactive)"}
{"smiles": "O=C(CSc1nc2ccc(Nc3nc(N4CCOCC4)nc(N4CCOCC4)n3)cc2s1)Nc1ccccc1Cl", "IC50": "7.85 µM"}
{"smiles": "Cc1ccc(-c2nc(NC(=O)c3cc(C(C)(C)C)nn3C)sc2C)cc1Cl", "IC50": "4.26 µM"}
{"smiles": "O=C(Nc1cccc(-c2nc3ccccc3[nH]2)c1)c1cccc2c1C(=O)N(CCc1ccccc1)C2", "IC50": "8.04 µM"}
{"smiles": "CCOc1ccc(NC(=O)CN(C)C(=O)c2cc(-c3ccc(OC)cc3)nc3ccccc23)cc1OCC", "IC50": "15.3 µM (inactive)"}
{"smiles": "COCCN1Cc2cccc(C(=O)Nc3cccc(-c4nc5ccc(F)cc5[nH]4)c3)c2C1=O", "IC50": "1.27 µM"}
{"smiles": "Cc1ccccc1NC(=O)CSc1nc(Nc2ccccc2)nc(N2CCOCC2)n1", "IC50": "15.3 µM (inactive)"}
